Data published in US10561591B2, “Hair care regimen using compositions comprising moisture control materials” (The Procter & Gamble Company, priority 2015, dated 2020).

Assays:
[1] = Expert rating of hair switches for frizz, clean feel and greasy feel (5 point scale) after high humidity; details: 1% in ethanol/water leave-on
Method: (§1) Additional leave-on treatment compositions are prepared (Tables 1 and 2) according to the procedure described above, which are used to treat hair switches using the procedure described above (amount of 0.10 g of composition per g of hair). […] Then, ten experts are asked to rate each hair switch in terms of frizz, clean feel, and greasy feel, based on a 5 point scale, 5 being the highest and 1 being the lowest rating.
Acceptable values are: • For frizz, less than 2 (lower number corresponds to less frizz); • For no greasy feel less than 3, (lower number corresponds to less greasy feel), and • For clean feel greater than 3 (higher number corresponds to cleaner feel).
as §1, with “(Tables 6” for “(Tables 1”, “and 7)” for “and 2)”, “rating. Acceptable values are: • For frizz, less than 2 (lower number corresponds to less frizz); • For no greasy feel less than 3, (lower number corresponds to less greasy feel), and • For clean feel greater than 3 (higher number corresponds to cleaner feel).” for “rating.”

[2] = Dynamic Vapor Sorption (DVS) measurement: % water reduction of treated hair versus control
Method: The % water reduction is calculated as follows: […]
Leave-on Treatment Formulation: […]

[3] = Penetration amount of moisture control material inside hair (extraction with 0.1% TFA in methanol, HPLC); details: 2% 2-hydroxyethyl urea versus composition without (example III and IV)
Method: Each hair tress is extracted 3 times with 0.1% TFA (Trifluoroacetic acid) in methanol and the individual extracts are analyzed separately using HPLC method.

SMILES	hair switch rating (frizz, clean feel, greasy feel), in words [1]	% water reduction in regimen, in words [2]	increase of penetration of salicylic acid inside hair by 2-hydroxyethyl urea [3] [%]
CCCCCCCCC(CO)CCCCCC (stereo not drawn) [2-Hexyl-1-decanol]	provide frizz protection with clean feel and without greasy feel negative	–	–
O=S(=O)(O)c1ccc(O)cc1 [4-Hydroxybenzenesulphonic acid]	provide fizz protection with clean feel and without greasy feel negative	–	–
O=CC(=O)O [glyoxylic acid]	–	further increase % water reduction	–
O=C(O)c1ccccc1O [Salicylic acid]	provide fizz protection with clean feel and without greasy feel negative	–	14
O=C(O)c1cc(Cl)ccc1O [5-Chlorosalicylic acid]	provide fizz protection with clean feel and without greasy feel negative	–	–
CC(C)CCCCCCCCCCCCCCCOC(=O)CCCCCCCCCCCCCCC(C)C [Isostearyl isostearate]	provide frizz protection with clean feel and without greasy feel negative	–	–
O=C(OCCO)c1ccccc1O [2-Hydroxyethyl salicylate]	provide frizz protection with clean feel and without greasy feel negative	–	–
O=C(O)c1ccc(O)cc1O [2,4-Dihydroxybenzoic acid]	provide fizz protection with clean feel and without greasy feel negative	–	–
